Test results published in US6942874B2, “Nucleotide compounds that block the bitter taste of oral compositions” (Linguagen Corp., priority 2001, dated 2005).

Tested on: transducin
Assay: [35S] GTPγS binding assay: transducin activation by bitter-stimulated taste membranes
Type: biochemical, bovine
From the text: Since G proteins have an intrinsic GTPase activity, which terminates the activation cycle, a radioactive nonhydrolyzable analogue of GTR such as [^35S] GTPγS or [^3H] GppNHp must be used. To test for the inhibitory activity of nucleotide compounds, several modifications of the standard [^35S] GTPγS binding assay were made to efficiently measure activation by bitter responsive receptors that couple to gustducin or transducin ([…] et al., in preparation). To maximize the bitter dependent change in radiolabel uptake GDP:GTPγS ratios, buffer composition, and specific activity of the [^35S] GTPγS were adjusted. […] Radionucleotide bound to transducin can be measured by filter binding followed by washing to remove unbound label (Asano et al., 1984 Biochemistry 23:5460-5467). The final concentrations in the [^35S] GTPγS binding assay mix are 10 mM HEPES pH 7.5, 5 mM MgCl2, 50 mM NaCl, 1 mM dithiolthreitol, 10 μM GDP, 1 μM [^35S] GTPγS (0.1 μCi/sample), 0.5 μg/0.05 ml transducin heterotrimer. A 2× stock of the above mixture is added to the bitter compound. Reactions are started by addition of 5 μg/0.05 ml bovine circumvallate membranes and the sample volume is adjusted to […] with water. Samples are incubated at room temperature (25±2° C. for 2 hours). Long incubation times are necessary due to the low density of receptors in the membranes. Similar results are obtained with high dilutions of rhodopsin. Samples are then filtered through BA-85 nitrocellulose filters and washed 3 times with 3 ml of 50 mM Tris-HCl pH 7.5, 4 mM MgCl2, and 0.1 M NaCl. Filters are dried, placed in scintillation fluid and the radioactivity is determined by scintillation counting. Experiments are performed in triplicate with several concentrations of the tastant of interest. Controls include: (i) a rhodopsin positive control, (ii) a no tastant negative control and (iii) a no membrane control +/-tastants.

[35S] GTPγS radiolabel binding to transducin (10 mM, with circumvallate membranes, vs membranes alone, Student's t-test, FIG. 1A): increased radiolabel binding
activation of transducin relative to maximal rhodopsin stimulated [35S] GTPγS binding (denatonium 10 mM, with bovine circumvallate membranes, FIG. 1A): ~40%
SMILES: CC[N+](CC)(CC(=O)Nc1c(C)cccc1C)Cc1ccccc1 [denatonium]
concentration dependence of transducin activation (in the presence of circumvallate membranes, FIG. 1B): concentration dependent activation of transducin
